Laboratory results from patent US8575382B2, “Low molecular weight pharmacological activity modulators” (“Ivy Pharm” LLC, priority 2009, dated 2013).
Where “and” joins values, the source holds several entries; their conditions need not be identical. Equal values may be shown once. Marks after values point to notes of the source that are not given here.

Columns and labels:
male rats with cytopenia = assay: Hemostimulating activity: general blood analysis of rats with cyclophosphane cytopenia; assay type: in vivo; details: for hemostimulating effect (in words): rats with cyclophosphane cytopenia, summary of Tables 5-7; for ESR / Erythrocytes / Leukocytes / Lymphoctes / Reticulocytes / Segmented neutrophils / Thrombocytes / Lymphocytes: rats, acetylcysteine 9.5, lithium carbonate 3, aC-Li 10, Cu-aC-Li:aC-Li 10 mg/kg
Experimental: The study was carried out on random-bred male white rats weighing 140-160 g, which were given a single subcutaneous injection of cyclophosphane in a dose of 100 mg/kg in physiological saline.
No. 3—animals which had received an injection of cyclophosphane and to which Cu-aC-Li:aC-Li in physiological saline was then administered in a dose of 10 mg/kg as a therapeutic means (amount of coordination compound 7.8×10^−8 M/kg);
No. 4—animals which had received an injection of cyclophosphane and to which aC-Li in physiological saline was then administered in a dose of 10 mg/kg as a therapeutic means;
No. 6—animals which had received an injection of cyclophosphane and to which acetylcysteine in physiological saline was then administered in a dose of 9.5 mg/kg as a therapeutic means (the amount of acetylcysteine was calculated on the basis of the proportion by weight of acetylcysteine (˜0.95) in 10 mg of […], which corresponds to 9.5 mg of the hydrogenated form of acetylcysteine).
The test preparations were administered on the third day after the administration of cyclophosphane.
Blood for hematological investigations was taken from the caudal vein 3, 7 and 14 days after administration of CP. At the end of each series (3, 7 and 14 days), the experimental animals were euthanized by an overdose of ether and blood was obtained from the caudal vein and bone marrow from the femur.
This study assessed the cellularity of the blood (the number of erythrocytes, thrombocytes, leukocytes, lymphocytes and neutrophils, and also the ESR) and bone marrow on 7-day administration of the test compounds to hemodepressed animals.

[1] = system: mice with hyperglycemia caused by glucose; assay: Glucose loading test, blood sugar level; assay type: in vivo
Experimental: the glucose loading test (reduction in the sugar content in animals with hyperglycemia, caused by administration of glucose when fasting); Blood was obtained after 1 h by caudal vein puncture and the serum glucose level was determined by the ortho-toluidine method. Experiments to study the effect of the test substances on the blood glucose level were carried out on white mice weighing 17-18 g. The animals were deprived of food from the evening prior to the experiment. […] Immediately after injecting the glucose, the experimental animals were injected subcutaneously with a reference preparation (insulin in a dose of 0.3 units/kg). […] The blood glucose level was determined over a period of 4 hours with intervals of 1 hour.

[2] = system: white rats with experimental diabetes; assay: Alloxan diabetes model; assay type: in vivo; details: for Cholesterol / Glucose / Total lipids / Triglycerides / β-lipoproteins: blood serum; for Body weight / Daily water consumption / Percent living: intragastrically once daily
Experimental: the alloxan diabetes model (reduction in the sugar content in the conditions of experimental chronic insulin insufficiency).
The alloxan diabetes model was used in another series of experiments. Alloxan diabetes was induced by a single subcutaneous injection of alloxan hydrate (Chemapol, Czech Republic) in a dose of 100 mg/kg in rats weighing 180-200 g which had fasted for 24 hours. The following groups of animals were studied: intact rats, untreated rats with diabetes, and animals with diabetes which were given thioctic acid daily for 1 month in a dose of 100 mg/kg, and thioctic acid in combination with the coordination compound in a dose of 10 mg/kg intragastrically once daily. Administration of the preparations commenced after 7 days, when the blood glucose level had roughly doubled as compared with the control. Each group contained 20 animals of both sexes. The general condition of the animals, the demand for food and water, the body weight, and the blood serum levels of glucose, total lipids, triglycerides, lipoproteins and cholesterol were recorded in the course of the experiment. […]

[3] = system: A431 line human epidermoid carcinoma cells; assay: Proliferative activity and death of A431 cells (cell count, propidium iodide flow cytofluorimetry); assay type: cell-based; details: for Proportion of dead cells / Total cells: A431, EGF 200 ng/ml
Experimental: The number of living and dead cells in a culture was determined after 24 and 48 hours.
A431 line human epidermoid carcinoma cells, obtained from the All-Russian Cell Culture Collection (Russian Academy of Sciences Institute of Cytology, St. Petersburg).
Cells are cultured in a CO2 incubator (New Brunswick Scientific) at +37° C. and with a CO2 content of 5%. Cells are grown in these conditions to a monolayer culture and are exposed to the action of the test compounds.
The DMEM medium (OOO PanEko, Moscow) with the addition of gentamicin K (80 mg/l), L-glutamine (300 mg/l) and fetal serum (PAA, Austria) to a final concentration of 10%, is used for culturing cells. Cells are transferred to a medium with a reduced serum content of 0.5% 24 hours before commencing an experiment.
The cells were then suspended by pipetting with an automatic pipette and were combined with the previously collected medium. Samples were centrifuged at room temperature for 5 min at 400 g, the supernatant was removed and the deposit was resuspended in pH 7.4 PBS phosphate-salt buffer.
Propidium iodide was added to a suspension of cells to a concentration of 50 μg/ml 5-10 min before measuring in a Bruker ACR 1000 flow cytofluorimeter. This stain is able to penetrate through a damaged cell membrane, and stained cells are dead.

[4] = day 3 after cyclophosphane 100 mg/kg
[5] = day 7 after cyclophosphane 100 mg/kg
[6] = day 14 after cyclophosphane 100 mg/kg
[7] = Table 2, age of culture 24 hours, cysteine […], C—Pd […], C—Pd:C […]
[8] = Table 2, age of culture 48 hours, cysteine […], C—Pd […], C—Pd:C […]

Compound: O=C([O-])[O-].[Li+].[Li+] [Li2HCO3, lithium carbonate]
- hemostimulating effect (in words) (male rats with cytopenia): positive trends
- ESR (male rats with cytopenia; [4]): 2.4 ± 0.42 mm/h
- Erythrocytes (male rats with cytopenia; [4]): 3.7 ± 0.21 10^12/l
- Leukocytes (male rats with cytopenia; [4]): 3.75 ± 0.46* 10^9/l
- Lymphoctes (male rats with cytopenia; [4]): 62 ± 3.8 %
- Reticulocytes (male rats with cytopenia; [4]): 0.118 ± 0.01 %
- Segmented neutrophils (male rats with cytopenia; [4]): 19.7 ± 3.4 %
- Thrombocytes (male rats with cytopenia; [4]): 256 ± 45.3 10^9/l
- ESR (male rats with cytopenia; [5]): 2.0 ± 0.36 mm/h and 3.2 ± 0.80 mm/h
- Erythrocytes (male rats with cytopenia; [5]): 3.6 ± 0.29 10^12/l and 3.2 ± 0.18 10^12/l
- Leukocytes (male rats with cytopenia; [5]): 3.22 ± 0.11* 10^9/l and 4.8 ± 0.18** 10^9/l
- Reticulocytes (male rats with cytopenia; [5]): 1.1 ± 0.1% and 1.2 ± 0.2%
- Segmented neutrophils (male rats with cytopenia; [5]): 33 ± 1.7 % and 50.4 ± 0.6 %
- Thrombocytes (male rats with cytopenia; [5]): 119 ± 12.0** 10^3/l and 164 ± 10.0** 10^3/l
- ESR (male rats with cytopenia; [6]): 2.4 ± 0.65 mm/h
- Erythrocytes (male rats with cytopenia; [6]): 4.9 ± 0.27 10^12/l
- Leukocytes (male rats with cytopenia; [6]): 5.9 ± 0.26** 10^9/l
- Lymphocytes (male rats with cytopenia; [6]): 69.3 ± 0.9%
- Reticulocytes (male rats with cytopenia; [6]): 1.4 ± 0.3%
- Segmented neutrophils (male rats with cytopenia; [6]): 14.9 ± 2.6 %
- Thrombocytes (male rats with cytopenia; [6]): 401 ± 59.9 10^3/l

Compound: O=C(O)CCCCC1CCSS1 (centres unmarked) [Thioctic acid, thioctic acid]
- Blood sugar level ([1]; 5.5 mg/kg intramuscularly, 1 hour): 4.3 ± 0.2 mmol/L
- Blood sugar level ([1]; 5.5 mg/kg intramuscularly, 2 hours): 4.0 ± 0.2 mmol/L
- Blood sugar level ([1]; 5.5 mg/kg intramuscularly, 3 hours): 4.4 ± 0.3 mmol/L
- Blood sugar level ([1]; 5.5 mg/kg intramuscularly, 4 hours): 4.1 ± 0.1 mmol/L
- Blood sugar level ([1]; 11 mg/kg intramuscularly, 1 hour): 4.5 ± 0.2 mmol/L
- Blood sugar level ([1]; 11 mg/kg intramuscularly, 2 hours): 4.2 ± 0.2 mmol/L
- Blood sugar level ([1]; 11 mg/kg intramuscularly, 3 hours): 4.2 ± 0.3 mmol/L
- Blood sugar level ([1]; 11 mg/kg intramuscularly, 4 hours): 4.2 ± 0.1 mmol/L
- Blood sugar level ([1]; 100 mg/kg intramuscularly, 1 hour): 3.0 ± 0.3 mmol/L
- Blood sugar level ([1]; 100 mg/kg intramuscularly, 2 hours): 2.8 ± 0.1 mmol/L
- Blood sugar level ([1]; 100 mg/kg intramuscularly, 3 hours): 2.5 ± 0.1 mmol/L
- Blood sugar level ([1]; 100 mg/kg intramuscularly, 4 hours): 2.4 ± 0.3 mmol/L
- Blood sugar level ([1]; 200 mg/kg intramuscularly, 1 hour): 2.7 ± 0.2 mmol/L
- Blood sugar level ([1]; 200 mg/kg intramuscularly, 2 hours): 2.6 ± 0.3 mmol/L
- Blood sugar level ([1]; 200 mg/kg intramuscularly, 3 hours): 2.3 ± 0.2 mmol/L
- Blood sugar level ([1]; 200 mg/kg intramuscularly, 4 hours): 2.1 ± 0.2 mmol/L
- hypoglycemizing effect (in words) ([1]; doses of 5.5 and 11 mg/kg, without the coordination compound): did not exhibit a hypoglycemizing effect
- Cholesterol ([2]; 14 days): 2.4 ± 0.2 mmol/L
- Glucose ([2]; 14 days): 5.2 ± 0.2 mmol/L
- Total lipids ([2]; 14 days): 10.4 ± 0.5 g/L
- Triglycerides ([2]; 14 days): 2.3 ± 0.2 mmol/L
- β-lipoproteins ([2]; 14 days): 2.1 ± 0.2 g/L
- Body weight ([2]; 14 days): 180 ± 10 g
- Daily water consumption ([2]; 14 days): 25 ± 5
- Percent living ([2]; 14 days): 100%
- Cholesterol ([2]; 20 days): 1.4 ± 0.2 mmol/L
- Glucose ([2]; 20 days): 4.8 ± 0.1 mmol/L
- Total lipids ([2]; 20 days): 10.2 ± 0.3 g/L
- Triglycerides ([2]; 20 days): 1.5 ± 0.2 mmol/L
- β-lipoproteins ([2]; 20 days): 2.1 ± 0.3 g/L
- Body weight ([2]; 20 days): 185 ± 10 g
- Daily water consumption ([2]; 20 days): 22 ± 5
- Percent living ([2]; 20 days): 100%
- Cholesterol ([2]; 30 days): 1.4 ± 0.1 mmol/L
- Glucose ([2]; 30 days): 4.6 ± 0.2 mmol/L
- Total lipids ([2]; 30 days): 9.5 ± 0.2 g/L
- Triglycerides ([2]; 30 days): 1.4 ± 0.2 mmol/L
- β-lipoproteins ([2]; 30 days): 2.1 ± 0.3 g/L
- Body weight ([2]; 30 days): 195 ± 10 g
- Daily water consumption ([2]; 30 days): 20 ± 3
- Percent living ([2]; 30 days): 100%

Compound: CC(=O)N[C@@H](CS)C(=O)[O-].[Li+] [aC—Li, lithium salt of acetylcysteine]
- hemostimulating effect (in words) (male rats with cytopenia): positive trends
- ESR (male rats with cytopenia; [4]): 3.3 ± 0.80 mm/h
- Erythrocytes (male rats with cytopenia; [4]): 4.0 ± 0.23 10^12/l
- Leukocytes (male rats with cytopenia; [4]): 4.38 ± 0.31* 10^9/l
- Lymphoctes (male rats with cytopenia; [4]): 45 ± 1.6 %
- Reticulocytes (male rats with cytopenia; [4]): 0.1 ± 0.1 %
- Segmented neutrophils (male rats with cytopenia; [4]): 42 ± 1.6 %
- Thrombocytes (male rats with cytopenia; [4]): 387 ± 17.4 10^9/l
- ESR (male rats with cytopenia; [6]): 2.7 ± 0.49 mm/h
- Erythrocytes (male rats with cytopenia; [6]): 5.2 ± 0.26 10^12/l
- Leukocytes (male rats with cytopenia; [6]): 5.6 ± 0.22** 10^9/l
- Lymphocytes (male rats with cytopenia; [6]): 72.5 ± 1.4%
- Reticulocytes (male rats with cytopenia; [6]): 1.3 ± 0.3%
- Segmented neutrophils (male rats with cytopenia; [6]): 20.3 ± 2.4 %
- Thrombocytes (male rats with cytopenia; [6]): 390 ± 38.3 10^3/l

Compound: CC(=O)N[C@@H](CS)C(=O)O [acetyl cysteine, acetylcysteine]
- hemostimulating effect (in words) (male rats with cytopenia): positive trends
- ESR (male rats with cytopenia; [4]): 2.2 ± 0.30 mm/h
- Erythrocytes (male rats with cytopenia; [4]): 3.0 ± 0.29 10^12/l
- Leukocytes (male rats with cytopenia; [4]): 3.26 ± 0.31* 10^9/l
- Lymphoctes (male rats with cytopenia; [4]): 68 ± 2.8 %
- Reticulocytes (male rats with cytopenia; [4]): 0.09 ± 0.006 %
- Segmented neutrophils (male rats with cytopenia; [4]): 17.6 ± 2.1 %
- Thrombocytes (male rats with cytopenia; [4]): 220 ± 45.3 10^9/l
- ESR (male rats with cytopenia; [5]): 1.9 ± 0.39 mm/h
- Erythrocytes (male rats with cytopenia; [5]): 3.1 ± 0.33 10^12/l
- Leukocytes (male rats with cytopenia; [5]): 3.47 ± 0.08* 10^9/l
- Lymphocytes (male rats with cytopenia; [5]): 51.5 ± 1.3 %
- Segmented neutrophils (male rats with cytopenia; [5]): 30 ± 1.8 %
- Thrombocytes (male rats with cytopenia; [5]): 124 ± 11 10^9/L
- ESR (male rats with cytopenia; [6]): 2.1 ± 0.73 mm/h
- Erythrocytes (male rats with cytopenia; [6]): 4.7 ± 0.21 10^12/l
- Leukocytes (male rats with cytopenia; [6]): 5.7 ± 0.22** 10^9/l
- Lymphocytes (male rats with cytopenia; [6]): 72.1 ± 1.6%
- Reticulocytes (male rats with cytopenia; [6]): 1.1 ± 0.4%
- Segmented neutrophils (male rats with cytopenia; [6]): 13.3 ± 1.9 %

Compound: Epidermal growth factor: physiological high-affinity ligand of the EGF receptor
- Proportion of dead cells [3, 7]: 19%
- Total cells [3, 7]: 47300 mL⁻¹
- Proportion of dead cells [3, 8]: 23%
- Total cells [3, 8]: 68800 mL⁻¹
- Proportion of dead cells ([3]; Table 3, 24 hours): 22%
- Total cells ([3]; Table 3, 24 hours): 52000 mL⁻¹
- Proportion of dead cells ([3]; Table 3, 48 hours): 29%
- Total cells ([3]; Table 3, 48 hours): 71700 mL⁻¹
- effect on the proliferative activity of A431 cells (in words) ([3]; summary of Table 2): maximum stimulating effect

Compound: Insulin: reference preparation
- Blood sugar level ([1]; insulin 0.3 units/kg subcutaneously, 1 hour): 1.2 ± 0.1 mmol/L
- Blood sugar level ([1]; insulin 0.3 units/kg subcutaneously, 2 hours): 1.4 ± 0.1 mmol/L
- Blood sugar level ([1]; insulin 0.3 units/kg subcutaneously, 3 hours): 1.6 ± 0.2 mmol/L
- Blood sugar level ([1]; insulin 0.3 units/kg subcutaneously, 4 hours): 2.0 ± 0.1 mmol/L
